Assay results as given in the supplement of paper PMC9663587.

Tests used:
[1] = compound: CCc1cnn2c(NCc3ccc[n+]([O-])c3)cc(N3CCCC[C@H]3CCO)nc12; assay: increase in dead-cell fraction, 72 h; higher = more death;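 note: breast cancer cell lines in 384-well plates, stained with Hoechst plus LIVE/DEAD far red dye and imaged, cells above an LDR intensity threshold counted dead, Hoechst-negative corpses included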
[2] = compound: T1, CN1CC[C@H](c2c(O)cc(O)c3c(=O)cc(-c4ccccc4Cl)oc23)[C@H](O)C1 [Flavopiridol]; assay: as above
[3] = compound: CN(C)C(=O)c1cc2cnc(Nc3ccc(N4CCNCC4)cn3)nc2n1C1CCCC1 [LEE011/Ribociclib]; assay: as above
[4] = compound: CC(=O)c1c(C)c2cnc(Nc3ccc(N4CCN(CCOCCOCCOCCNC(=O)COc5cccc6c5C(=O)N(C5CCC(=O)NC5=O)C6=O)CC4)cn3)nc2n(C2CCCC2)c1=O [BSJ-03-123]; assay: as above
[5] = compound: CC(=O)c1c(C)c2cnc(Nc3ccc(N4CCNCC4)cn3)nc2n(C2CCCC2)c1=O; assay: as above
[6] = compound: CCN1CCN(Cc2ccc(Nc3ncc(F)c(-c4cc(F)c5nc(C)n(C(C)C)c5c4)n3)nc2)CC1; assay: as above
[7] = compound: T2, CN(C)C/C=C/C(=O)Nc1ccc(C(=O)Nc2cccc(Nc3ncc(Cl)c(-c4c[nH]c5ccccc45)n3)c2)cc1 [THZ1]; assay: as above
[8] = compound: CCOc1cc2ncc(C#N)c(Nc3ccc(OCc4ccccn4)c(Cl)c3)c2cc1NC(=O)/C=C/CN(C)C [Neratinib/HKI272]; assay: as above
[9] = compound: T1, Flavopiridol; assay: GR value, 72 h; higher = faster growth (1 = untreated, <0 = killing);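 note: breast cancer and non-malignant breast epithelial lines, nine half-log doses, viable cells counted by Hoechst and LIVE/DEAD dye imaging versus time-zero plates and DMSO controls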
[10] = compound: CC(=O)c1c(C)c2cnc(Nc3ccc(N4CCNCC4)cn3)nc2n(C2CCCC2)c1=O; assay: as above
[11] = compound: CN(C)C/C=C/C(=O)Nc1ccc(C(=O)N2CCC[C@@H](Nc3ncc(Cl)c(-c4c[nH]c5ccccc45)n3)C2)cc1 [THZ531]; assay: as above
[12] = compound: T2, THZ1; assay: as above

## CAMA1
[1]; 0.0001 µM
  increase in dead-cell fraction: -0.0004
[1]; 0.0003162 µM
  increase in dead-cell fraction: -0.0044
[1]; 0.001 µM
  increase in dead-cell fraction: 0.0031
[1]; 0.003162 µM
  increase in dead-cell fraction: 0.0113
[1]; 0.01 µM
  increase in dead-cell fraction: 0.0533
[1]; 0.03162 µM
  increase in dead-cell fraction: 0.153
[1]; 0.1 µM
  increase in dead-cell fraction: 0.46
[1]; 0.3162 µM
  increase in dead-cell fraction: 0.518
[1]; 1 µM
  increase in dead-cell fraction: 0.56
[2]; 0.0001 µM
  increase in dead-cell fraction: 0.0013
[2]; 0.0003162 µM
  increase in dead-cell fraction: 0.0009
[2]; 0.001 µM
  increase in dead-cell fraction: 0.0022
[2]; 0.003162 µM
  increase in dead-cell fraction: 0.0011
[2]; 0.01 µM
  increase in dead-cell fraction: 0.0016
[2]; 0.03162 µM
  increase in dead-cell fraction: 0.0052
[2]; 0.1 µM
  increase in dead-cell fraction: 0.0067
[2]; 0.3162 µM
  increase in dead-cell fraction: 0.0207
[2]; 1 µM
  increase in dead-cell fraction: 0.107
[3]; 0.001 µM
  increase in dead-cell fraction: -0.0064
[3]; 0.003162 µM
  increase in dead-cell fraction: -0.0056
[3]; 0.01 µM
  increase in dead-cell fraction: -0.0011
[3]; 0.03162 µM
  increase in dead-cell fraction: -0.0009
[3]; 0.1 µM
  increase in dead-cell fraction: 0.006
[3]; 0.3162 µM
  increase in dead-cell fraction: 0.0058
[3]; 1 µM
  increase in dead-cell fraction: 0.011
[3]; 3.162 µM
  increase in dead-cell fraction: 0.0045
[3]; 10 µM
  increase in dead-cell fraction: 0.0049
[4]; 0.001 µM
  increase in dead-cell fraction: -0.0067
[4]; 0.003162 µM
  increase in dead-cell fraction: -0.0023
[4]; 0.01 µM
  increase in dead-cell fraction: 0.0007
[4]; 0.03162 µM
  increase in dead-cell fraction: -0.0025
[4]; 0.1 µM
  increase in dead-cell fraction: 0.0035
[4]; 0.3162 µM
  increase in dead-cell fraction: -0.0021
[4]; 1 µM
  increase in dead-cell fraction: 0.0045
[4]; 3.162 µM
  increase in dead-cell fraction: -0.0077
[4]; 10 µM
  increase in dead-cell fraction: 0.0255
[5]; 0.0003162 µM
  increase in dead-cell fraction: -0.0052
[5]; 0.001 µM
  increase in dead-cell fraction: 0.0045
[5]; 0.003162 µM
  increase in dead-cell fraction: -0.006
[5]; 0.01 µM
  increase in dead-cell fraction: -0.0044
[5]; 0.03162 µM
  increase in dead-cell fraction: -0.0065
[5]; 0.1 µM
  increase in dead-cell fraction: -0.0028
[5]; 0.3162 µM
  increase in dead-cell fraction: 0.0013
[5]; 1 µM
  increase in dead-cell fraction: 0
[5]; 3.162 µM
  increase in dead-cell fraction: -0.0024
[6]; 0.001 µM
  increase in dead-cell fraction: -0.0054
[6]; 0.003162 µM
  increase in dead-cell fraction: -0.0135
[6]; 0.01 µM
  increase in dead-cell fraction: -0.0075
[6]; 0.03162 µM
  increase in dead-cell fraction: -0.0084
[6]; 0.1 µM
  increase in dead-cell fraction: 0.0035
[6]; 0.3162 µM
  increase in dead-cell fraction: -0.0078
[6]; 1 µM
  increase in dead-cell fraction: -0.0025
[6]; 3.162 µM
  increase in dead-cell fraction: -0.0084
[6]; 10 µM
  increase in dead-cell fraction: 0.0143
[7]; 0.0001 µM
  increase in dead-cell fraction: -0.0002
[7]; 0.0003162 µM
  increase in dead-cell fraction: 0.0023
[7]; 0.001 µM
  increase in dead-cell fraction: -0.002
[7]; 0.003162 µM
  increase in dead-cell fraction: -0.0017
[7]; 0.01 µM
  increase in dead-cell fraction: 0.0023
[7]; 0.03162 µM
  increase in dead-cell fraction: 0.0135
[7]; 0.1 µM
  increase in dead-cell fraction: 0.0187
[7]; 0.3162 µM
  increase in dead-cell fraction: 0.0397
[7]; 1 µM
  increase in dead-cell fraction: 0.187
[8]; 0.0003162 µM
  increase in dead-cell fraction: 0.0013
[8]; 0.001 µM
  increase in dead-cell fraction: 0.0021
[8]; 0.003162 µM
  increase in dead-cell fraction: -0.0002
[8]; 0.01 µM
  increase in dead-cell fraction: 0.0022
[8]; 0.03162 µM
  increase in dead-cell fraction: 0.0081
[8]; 0.1 µM
  increase in dead-cell fraction: 0.0011
[8]; 0.3162 µM
  increase in dead-cell fraction: 0.0067
[8]; 1 µM
  increase in dead-cell fraction: 0.0021
[8]; 3.162 µM
  increase in dead-cell fraction: 0.0342
[9]; 0.0001 µM
  GR value: 1.25 GR
[9]; 0.0003162 µM
  GR value: 1.12 GR
[9]; 0.001 µM
  GR value: 0.73 GR
[9]; 0.003162 µM
  GR value: 1.05 GR
[9]; 0.01 µM
  GR value: 0.907 GR
[9]; 0.03162 µM
  GR value: 0.862 GR
[9]; 0.1 µM
  GR value: 0.807 GR
[9]; 0.3162 µM
  GR value: 0.194 GR
[9]; 1 µM
  GR value: -0.111 GR
[10]; 0.0003162 µM
  GR value: 0.969 GR
[10]; 0.001 µM
  GR value: 0.973 GR
[10]; 0.003162 µM
  GR value: 0.94 GR
[10]; 0.01 µM
  GR value: 0.887 GR
[10]; 0.03162 µM
  GR value: 0.678 GR
[10]; 0.1 µM
  GR value: 0.442 GR
[10]; 0.3162 µM
  GR value: 0.303 GR
[10]; 1 µM
  GR value: 0.3 GR
[10]; 3.162 µM
  GR value: 0.288 GR
[11]; 0.0001 µM
  GR value: 1.2 GR
[11]; 0.0003162 µM
  GR value: 0.94 GR
[11]; 0.001 µM
  GR value: 0.893 GR
[11]; 0.003162 µM
  GR value: 1.16 GR
[11]; 0.01 µM
  GR value: 1.26 GR
[11]; 0.03162 µM
  GR value: 0.867 GR
[11]; 0.1 µM
  GR value: 0.777 GR
[11]; 0.3162 µM
  GR value: -0.0843 GR
[11]; 1 µM
  GR value: -0.403 GR
[12]; 0.0001 µM
  GR value: 0.892 GR
[12]; 0.0003162 µM
  GR value: 0.979 GR
[12]; 0.001 µM
  GR value: 0.758 GR
[12]; 0.003162 µM
  GR value: 0.755 GR
[12]; 0.01 µM
  GR value: 0.615 GR
[12]; 0.03162 µM
  GR value: 0.549 GR
[12]; 0.1 µM
  GR value: 0.208 GR
[12]; 0.3162 µM
  GR value: -0.0416 GR
[12]; 1 µM
  GR value: -0.467 GR
